Experimental data from patent US8236947B2, “Quinoline derivatives and their use as 5-HT6 ligands” (Glaxo Group Limited, priority 2002, dated 2012).
Where a name gives a salt, the structure may show the parent alone. Read-outs that look alike come from different tables or passages of the source.

Legend:
[1] = biological target: human cloned 5-HT6 receptors (Homo sapiens, UniProt P50406); experiment: affinity for the 5-HT6 receptor (procedures outlined in WO98/27081); type: binding
[2] = human cloned 5-HT6 receptors, read-out: pKi values at human cloned 5-HT6 receptors (converted)

Sequence of human cloned 5-HT6 receptors (P50406 whole entry): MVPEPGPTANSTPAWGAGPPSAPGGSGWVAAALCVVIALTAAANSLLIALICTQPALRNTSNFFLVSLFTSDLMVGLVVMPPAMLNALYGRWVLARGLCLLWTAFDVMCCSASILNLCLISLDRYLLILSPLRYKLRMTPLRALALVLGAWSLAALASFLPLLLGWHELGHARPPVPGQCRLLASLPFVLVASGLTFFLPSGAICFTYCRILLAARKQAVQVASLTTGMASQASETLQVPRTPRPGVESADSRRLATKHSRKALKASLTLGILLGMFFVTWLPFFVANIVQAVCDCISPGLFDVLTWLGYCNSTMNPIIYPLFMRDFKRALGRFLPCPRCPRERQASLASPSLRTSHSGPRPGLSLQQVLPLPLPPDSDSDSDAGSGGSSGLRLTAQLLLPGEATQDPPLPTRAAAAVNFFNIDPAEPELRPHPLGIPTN

Row | Ki [1, 2] [nM] | Compound | also measured
1 | < 10 | Cc1cc(N2CCNCC2)c2ncc(S(=O)(=O)c3ccccc3)cc2c1 [Example E11, 6-Methyl-3-phenylsulfonyl-8-piperazin-1-yl-quinoline hydrochloride] | –
2 | < 10 | C[C@@H]1CN(c2cccc3cc(S(=O)(=O)c4ccccc4)cnc23)CCN1 [Example E12, (R)-8-(3-Methyl)piperazin-1-yl-3-phenylsulfonylquinoline hydrochloride] | –
3 | < 10 | C[C@H]1CN(c2cccc3cc(S(=O)(=O)c4ccccc4)cnc23)CCN1 [Example E13, (S)-8-(3-Methyl)piperazin-1-yl-3-phenylsulfonylquinoline hydrochloride] | –
4 | < 10 | O=S(=O)(c1ccccc1)c1cnc2c(N3CCCNCC3)cccc2c1 [Example E14, 8-Homopiperazin-1-yl-3-phenylsulfonylquinoline hydrochloride] | –
5 | < 10 | CCN1CCN(c2cccc3cc(S(=O)(=O)c4ccccc4)cnc23)CC1 [Example E17, 8-(4-Ethyl-piperazin-1-yl)-3-phenylsulfonylquinoline hydrochloride] | –
6 | < 10 | O=S(=O)(c1ccccc1)c1cnc2c(N3CCN4CCCC4C3)cccc2c1 (centres unmarked) [Example E37] | –
7 | < 10 | O=S(=O)(c1ccccc1)c1cnc2c(N3C[C@@H]4C[C@H]3CN4)cccc2c1 [Example E43, 3-Phenylsulfonyl 8-({1S, 4S}2,5-diazabicyclo[2.2.1]heptan-2-yl) quinoline hydrochloride] | –

The remaining lines, values behind:

Row | Compound | Ki [1, 2] [nM] | also measured
8 | C[C@H]1CN(c2cccc3cc(S(=O)(=O)c4ccccc4)cnc23)CCN1 (as salt: hydrochloride) [Example E13, (S)-8-(3-Methyl)piperazin-1-yl-3-phenylsulfonylquinoline hydrochloride] | – | melting point: 266 to 269 °C (dec.)
9 | CN1CCN(c2cccc3cc(S(=O)(=O)c4ccccc4)cnc23)CC1 [Example E1, 8-(4-Methyl-piperazin-1-yl)-3-phenylsulfonylquinoline] | < 10 | –
10 | O=S(=O)(c1cnc2c(N3CCNCC3)cccc2c1)c1ccccc1Cl [Example E3, 3-(2-Chloro)phenylsulfonyl-8-piperazin-1-yl-quinoline hydrochloride] | < 10 | –
11 | O=S(=O)(c1cccc(Cl)c1)c1cnc2c(N3CCNCC3)cccc2c1 [Example E4, 3-(3-Chloro)phenylsulfonyl-8-piperazin-1-yl-quinoline hydrochloride] | < 10 | –
12 | O=S(=O)(c1cnc2c(N3CCNCC3)cccc2c1)c1ccccc1F [Example E5, 3-(2-Fluoro)phenylsulfonyl-8-piperazin-1-yl-quinoline hydrochloride] | < 10 | –
13 | O=S(=O)(c1ccc(Cl)cc1)c1cnc2c(N3CCNCC3)cccc2c1 [Example E6, 3-(4-Chloro)phenylsulfonyl-8-piperazin-1-yl-quinoline hydrochloride] | < 10 | –
14 | O=S(=O)(c1cccc(F)c1)c1cnc2c(N3CCNCC3)cccc2c1 [Example E7, 3-(3-Fluoro)phenylsulfonyl-8-piperazin-1-yl-quinoline hydrochloride] | < 10 | –
15 | O=S(=O)(c1cnc2c(N3CCNCC3)cccc2c1)c1ccc(Br)cc1OC(F)(F)F [Example E8, 3-(4-Bromo-2-trifluoromethoxy)phenylsulfonyl-8-piperazin-1-yl-quinoline hydrochloride] | < 10 | –
16 | O=S(=O)(c1cccc(C(F)(F)F)c1)c1cnc2c(N3CCNCC3)cccc2c1 [Example E9, 8-Piperazin-1-yl-3-(3-trifluoromethyl)phenylsulfonylquinoline hydrochloride] | < 10 | –
17 | O=S(=O)(c1ccccc1)c1cnc2c(N3CCNCC3)c(Cl)ccc2c1 [Example E10, 7-Chloro-3-phenylsulfonyl-8-piperazin-1-yl-quinoline hydrochloride] | – | Ki [1]: < 10 nM
